Results reported in patent publication US8252737B2, “Antimicrobial peptides and methods of use” (priority 2004, dated 2012).
≈ marks a conversion by molar mass, not a printed value. Square brackets hold non-standard residues; d marks the D form. Peptide text beside a SMILES is read from it.

Assays:
[1] = RP-HPLC temperature profiling (hydrophobicity and self-association/dimerization parameter PA); assay type: physicochemical; details: for tR (min) 5° C.: RP-HPLC retention time at 5° C. during temperature profiling (measure of hydrophobicity); for tR (min) 80° C.: RP-HPLC retention time at 80° C. during temperature profiling; for Hydrophobicity tR5: RP-HPLC retention time at pH 2, 5° C.; for Hydrophobicity tR80: RP-HPLC retention time at pH 2, 80° C.; for tR (min) Max: maximal RP-HPLC retention time during temperature profiling 5-80° C.; for PA (min) association parameter: maximal retention time difference relative to control peptide C within 5-80° C.; for PA (dimerization / self-association parameter): maximal retention time difference relative to control peptide C, 5-80° C.; for ΔtR (X-NVL) (min) 5° C.: retention time difference relative to native peptide V681 (NVL) at 5° C.; for ΔtR (X-NVL) (min) 5° C. / ΔtR (X-NVL) (min) 80° C. / ΔtR (X-PSL) (min) 5° C. / ΔtR (X-PSL) (min) 80° C.: relative hydrophobicity; for ΔtR (X-NVL) (min) 80° C.: retention time difference relative to native peptide V681 (NVL) at 80° C.; for ΔtR (X-PSL) (min) 5° C.: retention time difference relative to native peptide V681 (PSL) at 5° C.; for ΔtR (X-PSL) (min) 80° C.: retention time difference relative to native peptide V681 (PSL) at 80° C.
Method in brief: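 RP-HPLC retention times recorded over temperature profiling from 5°C to 80°C, with retention relative to native V681 at each limit used as hydrophobicity. Self-association parameter PA defined as the maximal change in retention time from 5°C, after subtracting that of monomeric random-coil control peptide C.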

gram-negative bacteria = experiment: MIC, microtiter dilution, Gram-negative bacteria (geometric mean of 6 strains); assay type: cell-based; details: for MIC (μg/ml) Gram-negative: geometric mean MIC, Table 9; for MIC (μg/ml) GM: geometric mean of MIC values from all 6 Gram-negative strains of Table 11
Method: The geometric mean MIC values from 6 microbial strains in this table were calculated to provide an overall evaluation of antimicrobial activity against gram-negative bacteria.
In Table 11, geometric mean MIC was calculated to provide an overall view of antimicrobial activity of the peptides against Gram-negative bacteria and was also used to calculate the therapeutic index.
Measurement of Antimicrobial Activity—Minimal inhibitory concentrations (MICs) were determined using a standard microtiter dilution method in LB (Luria-Bertani) no-salt medium (10 g of tryptone and 5 g of yeast extract per liter). Briefly, cells were grown overnight at 37° C. in LB and diluted in the same medium. […] Plates were incubated at 37° C. for 24 hours and MICs determined as the lowest peptide concentration that inhibited growth. Alternatively, minimal inhibitory concentrations were determined using a standard microtiter dilution method in a Mueller-Hinton (MH) medium. Briefly, cells were grown overnight at 37° C. in MH broth and diluted in the same medium. […] Plates were incubated at 37° C. for 24 hours and MICs determined as the lowest peptide concentration that inhibited growth. However, for MIC determination of Pseudomonas aeruginosa clinical isolates, brain heart infusion (BH1) medium was used instead of MH broth. In addition, the bacteria were diluted to a final inoculum of 1×10^6 colony-forming units/ml.

| Compound | tR (min) 5° C. [1] | tR (min) 80° C. [1] | Hydrophobicity tR5 [1] | Hydrophobicity tR80 [1] | overall hydrophobicity change relative to PVL ([1]; RP-HPLC retention time difference at 80° C., polar face substitutions) | tR (min) Max [1] | PA (min) association parameter [1] | PA (dimerization / self-association parameter) [1] | ΔtR (X-NVL) (min) 5° C. ([1]; non-polar face substitutions) | ΔtR (X-NVL) (min) 80° C. ([1]; non-polar face substitutions) | ΔtR (X-PSL) (min) 5° C. ([1]; polar face substitutions) | ΔtR (X-PSL) (min) 80° C. ([1]; polar face substitutions) | MIC (μg/ml) Gram-negative (gram-negative bacteria) | MIC (μg/ml) GM (gram-negative bacteria) | decrease in hydrophobicity relative to NVL (V681) ([1]; RP-HPLC retention time difference at 80° C., non-polar face substitutions) | fold improvement on the average MIC compared to V681 (gram-negative bacteria; gram-negative bacteria, geometric mean comparison, Table 7) | geometric mean MIC against Gram-negative bacteria (gram-negative bacteria; 6 strains of Table 7) |
| --- | --- | --- | --- | --- | --- | --- | --- | --- | --- | --- | --- | --- | --- | --- | --- | --- | --- |
| CC[C@H](C)[C@H](NC(=O)[C@H](C)NC(=O)[C@H](CCCCN)NC(=O)[C@H](CC(C)C)NC(=O)[C@H](C)NC(=O)[C@@H](NC(=O)[C@H](Cc1c[nH]cn1)NC(=O)[C@H](CC(C)C)NC(=O)[C@@H](NC(=O)[C@@H](NC(=O)[C@H](CCCCN)NC(=O)[C@@H](NC(=O)[C@H](C)NC(=O)[C@H](CO)NC(=O)[C@H](CCCCN)NC(=O)[C@H](Cc1ccccc1)NC(=O)[C@@H](NC(=O)[C@H](CCCCN)NC(=O)[C@H](CC(C)C)NC(=O)[C@H](Cc1ccccc1)NC(=O)[C@H](CO)NC(=O)[C@H](CCCCN)NC(=O)[C@H](Cc1c[nH]c2ccccc12)NC(=O)[C@H](CCCCN)NC(C)=O)[C@@H](C)O)C(C)C)[C@@H](C)O)C(C)C)[C@@H](C)O)C(=O)N[C@@H](CO)C(=O)N[C@@H](CO)C(N)=O [Peptide V681, reference compound] | 48.10 min | 45.83 min | 96.6 min | 88.8 min | -0.35 min | 49.99 min | 3.63 min | 7.2 | 0 min | 0 min | 0 min | 0 min | 8.8 µg/mL (≈ 2.97 µM) | 5.0 µg/mL (≈ 1.69 µM) | – | – | – |
| CC[C@H](C)[C@H](NC(=O)[C@H](C)NC(=O)[C@H](CCCCN)NC(=O)[C@H](CC(C)C)NC(=O)[C@H](C)NC(=O)[C@@H](NC(=O)[C@H](Cc1c[nH]cn1)NC(=O)[C@H](CC(C)C)NC(=O)[C@@H](NC(=O)[C@@H](NC(=O)[C@H](CCCCN)NC(=O)[C@@H](NC(=O)[C@H](C)NC(=O)[C@H](NC(=O)[C@H](CCCCN)NC(=O)[C@H](Cc1ccccc1)NC(=O)[C@@H](NC(=O)[C@H](CCCCN)NC(=O)[C@H](CC(C)C)NC(=O)[C@H](Cc1ccccc1)NC(=O)[C@H](CO)NC(=O)[C@H](CCCCN)NC(=O)[C@H](Cc1c[nH]c2ccccc12)NC(=O)[C@H](CCCCN)NC(C)=O)[C@@H](C)O)C(C)C)C(C)C)[C@@H](C)O)C(C)C)[C@@H](C)O)C(=O)N[C@@H](CO)C(=O)N[C@@H](CO)C(N)=O [PVD] (Ac-KWKSFLKTFK[dV]AVKTVLHTALKAISS-NH2) | 42.96 min | 40.51 min | – | – | – | 43.83 min | 2.54 min | – | – | – | -5.14 min | -5.32 min | 6.1 µg/mL (≈ 2.05 µM) | – | – | – | – |
| Ac-KWKSFLKTFKSASKTVLHTALKAISS-NH2 [NSL] | 40.72 min | 37.62 min | – | – | – | 41.08 min | 1.82 min | – | -7.38 min | -8.21 min | – | – | 4.2 µg/mL | – | -8.21 min | – | – |
| CC[C@H](C)[C@H](NC(=O)[C@H](C)NC(=O)[C@H](CCCCN)NC(=O)[C@H](CC(C)C)NC(=O)[C@H](C)NC(=O)[C@@H](NC(=O)[C@H](Cc1c[nH]cn1)NC(=O)[C@H](CC(C)C)NC(=O)[C@@H](NC(=O)[C@@H](NC(=O)[C@H](CCCCN)NC(=O)[C@@H](NC(=O)[C@H](C)NC(=O)[C@@H](C)NC(=O)[C@H](CCCCN)NC(=O)[C@H](Cc1ccccc1)NC(=O)[C@@H](NC(=O)[C@H](CCCCN)NC(=O)[C@H](CC(C)C)NC(=O)[C@H](Cc1ccccc1)NC(=O)[C@H](CO)NC(=O)[C@H](CCCCN)NC(=O)[C@H](Cc1c[nH]c2ccccc12)NC(=O)[C@H](CCCCN)NC(C)=O)[C@@H](C)O)C(C)C)[C@@H](C)O)C(C)C)[C@@H](C)O)C(=O)N[C@@H](CO)C(=O)N[C@@H](CO)C(N)=O [PAD] (Ac-KWKSFLKTFK[dA]AVKTVLHTALKAISS-NH2) | 45.19 min | 42.57 min | – | – | – | 46.36 min | 2.82 min | – | – | – | -2.91 min | -3.26 min | 4.3 µg/mL (≈ 1.46 µM) | – | – | – | – |
| CC[C@H](C)[C@H](NC(=O)[C@H](C)NC(=O)[C@H](CCCCN)NC(=O)[C@H](CC(C)C)NC(=O)[C@H](C)NC(=O)[C@@H](NC(=O)[C@H](Cc1c[nH]cn1)NC(=O)[C@H](CC(C)C)NC(=O)[C@@H](NC(=O)[C@@H](NC(=O)[C@H](CCCCN)NC(=O)[C@@H](C)NC(=O)[C@H](C)NC(=O)[C@H](CO)NC(=O)[C@H](CCCCN)NC(=O)[C@H](Cc1ccccc1)NC(=O)[C@@H](NC(=O)[C@H](CCCCN)NC(=O)[C@H](CC(C)C)NC(=O)[C@H](Cc1ccccc1)NC(=O)[C@H](CO)NC(=O)[C@H](CCCCN)NC(=O)[C@H](Cc1c[nH]c2ccccc12)NC(=O)[C@H](CCCCN)NC(C)=O)[C@@H](C)O)[C@@H](C)O)C(C)C)[C@@H](C)O)C(=O)N[C@@H](CO)C(=O)N[C@@H](CO)C(N)=O [NAD] | 40.49 min | 38.00 min | 81.2 min | 73.2 min | – | 41.01 min | 2.19 min | 4.1 | -7.61 min | -7.83 min | – | – | – | 3.1 µg/mL (≈ 1.06 µM) | – | – | – |
| CC[C@H](C)[C@H](NC(=O)[C@H](C)NC(=O)[C@H](CCCCN)NC(=O)[C@H](CC(C)C)NC(=O)[C@H](C)NC(=O)[C@@H](NC(=O)[C@H](Cc1c[nH]cn1)NC(=O)[C@H](CC(C)C)NC(=O)[C@@H](NC(=O)[C@@H](NC(=O)[C@H](CCCCN)NC(=O)[C@@H](NC(=O)[C@H](C)NC(=O)[C@@H](CCCCN)NC(=O)[C@H](CCCCN)NC(=O)[C@H](Cc1ccccc1)NC(=O)[C@@H](NC(=O)[C@H](CCCCN)NC(=O)[C@H](CC(C)C)NC(=O)[C@H](Cc1ccccc1)NC(=O)[C@H](CO)NC(=O)[C@H](CCCCN)NC(=O)[C@H](Cc1c[nH]c2ccccc12)NC(=O)[C@H](CCCCN)NC(C)=O)[C@@H](C)O)C(C)C)[C@@H](C)O)C(C)C)[C@@H](C)O)C(=O)N[C@@H](CO)C(=O)N[C@@H](CO)C(N)=O [PKD] (Ac-KWKSFLKTFK[dK]AVKTVLHTALKAISS-NH2) | 42.20 min | 39.29 min | – | – | – | 42.87 min | 2.23 min | – | – | – | -5.90 min | -6.54 min | 2.6 µg/mL (≈ 0.866 µM) | – | – | 3.4 | – |
| Ac-KWKSFLKTFKSALKTVLHTALKAISS-NH2 [NLL] | 48.16 min | 47.02 min | – | – | – | 50.45 min | 4.22 min | – | 0.06 min | 1.19 min | – | – | – | – | – | – | 12.7 µg/mL |
| CC[C@H](C)[C@H](NC(=O)[C@H](C)NC(=O)[C@H](CCCCN)NC(=O)[C@H](CC(C)C)NC(=O)[C@H](C)NC(=O)[C@@H](NC(=O)[C@H](Cc1c[nH]cn1)NC(=O)[C@H](CC(C)C)NC(=O)[C@@H](NC(=O)[C@@H](NC(=O)[C@H](CCCCN)NC(=O)[C@@H](NC(=O)[C@H](C)NC(=O)[C@@H](CO)NC(=O)[C@H](CCCCN)NC(=O)[C@H](Cc1ccccc1)NC(=O)[C@@H](NC(=O)[C@H](CCCCN)NC(=O)[C@H](CC(C)C)NC(=O)[C@H](Cc1ccccc1)NC(=O)[C@H](CO)NC(=O)[C@H](CCCCN)NC(=O)[C@H](Cc1c[nH]c2ccccc12)NC(=O)[C@H](CCCCN)NC(C)=O)[C@@H](C)O)C(C)C)[C@@H](C)O)C(C)C)[C@@H](C)O)C(=O)N[C@@H](CO)C(=O)N[C@@H](CO)C(N)=O [PSD] | 45.47 min | 42.59 min | – | – | – | 46.60 min | 2.73 min | – | – | – | -2.63 min | -3.24 min | 2.9 µg/mL (≈ 0.979 µM) | – | – | – | – |
